Source: patent publication US20230087844A1, “USE OF N2-QUINCLINE OR ISOQUINOLINE SUBSTITUTED PURINE DERIVATIVES IN CANCER TREATMENT” (SHANGHAI HUAYU BIOTECHNOLOGY CO., LTD., priority 2020, published 2023)
Marks after values point to notes of the source that are not given here.

Assays:
[1] = biological target: KDR (VEGFR-2) (Homo sapiens, UniProt P35968); assay: Inhibition of KDR phosphorylation; assay type: biochemical
Text: (§1) FLT3 is a class III receptor tyrosine kinase and plays an important role in hematopoiesis and lymphocyte development. […] Wang et al found over 60% of 82 leukemia cell lines were FLT3 positive (Wang Y et al., (2006) Journal of Experimental Hematology 14(3): 446-449). FLT3-internal tandem duplication (ITD) is the most commonly seen mutation in AML patients, with about 17-34% of AML patients carrying such a mutation (Jia H et al., (2018) Medical Laboratory Science and Clinics 19(5): 39). […] Thus, the compounds of the disclosure with high inhibitory effect on FLT3 function may be good candidates for leukemia treatment.

[2] = system: PDGFR; assay: Inhibition of PDGFR phosphorylation; assay type: biochemical
Text: as §1

[3] = system: H441; assay: MTT tumor cell proliferation, H441; assay type: cell-based; settings: Homo sapiens, NCI-H441; H441, Lung cancer, 72 hour
Description: (§2) as an exemplary compound of formula (I), was tested for its inhibitory effect on tumor cell proliferation in a MTT assay.
(§3) Briefly, cells at the log phase were collected, suspended in the cell culture medium at 4*10^4/ml density, and plated in 96-well plates, 90 μl per well. The plates were kept in a 5% CO2 and 37° C. incubator for 2 hours, and then added with 100 μg/ml, 10 μg/ml, 1 μg/ml, 0.1 μg/ml, 0.01 μg/ml or 0.001 μg/ml Compound A, 4 replicates for each cell at each compound concentration. DMSO was used in the positive control group, and another negative group was also set. After 72 hour incubation in the same incubator, 20 μl 5 mg/ml MTT reagent was added to each well. After another 4 hour incubation, each well was added with 100 μl SDS and further incubated for 12 hours. Absorbance at 570 nm was read in a reader, and IC50 was calculated.

[4] = system: SGC-7901; assay: MTT tumor cell proliferation, SGC-7901; assay type: cell-based; settings: Homo sapiens; SGC-7901, Gastric cancer, 72 hour
Description: as §2, §3

[5] = system: SK-BR-3; assay: MTT tumor cell proliferation, SK-BR-3; assay type: cell-based; settings: Homo sapiens; SK-BR-3, Breast cancer, 72 hour
Description: as §2, §3

[6] = system: BT-474; assay: MTT tumor cell proliferation, BT-474; assay type: cell-based; settings: Homo sapiens; BT-474, Breast cancer, 72 hour
Description: as §2, §3

[7] = system: MDA-MB-231; assay: MTT tumor cell proliferation, MDA-MB-231; assay type: cell-based; settings: Homo sapiens; MDA-MB-231, Breast cancer, 72 hour
Description: as §2, §3

[8] = system: MCF-7; assay: MTT tumor cell proliferation, MCF-7; assay type: cell-based; settings: Homo sapiens, MCF7; MCF-7, Breast cancer, 72 hour
Description: as §2, §3

[9] = system: Ls-174t human colon cancer cells; assay: Ls-174t colon cancer xenograft in mice; assay type: in vivo, BALB/cA-nude mice; settings: for T/C: D14
Text: Mice were sacrificed on Day-14.

[10] = system: H526; assay: Tumor cell death by MTT, H526; assay type: cell-based, human; settings: 20 nM
Description: (§4) The in vitro inhibitory effect of Compound A alone or in combination with a PARP inhibitor on tumor cell growth was tested using human small cell lung cancer (SCLC) cell lines, including H69 (ATCC® HTB-119™), H526 (ATCC® CRL-5811™) and H446 (TCHu196, National Collection of Authenticated Cell Cultures).
(§5) Briefly, the cells were seeded into a 96-well dish with RPMI-1640 (10-040-CV, Coming cellgro) containing 10% fetal bovine serum (10270-106, GIBCO), 1% penicillin and 1% streptomycin (BaSalMedia, S110JV), at an initial density of 3×10^3 cells per well ([…]), and cultured at a 37° C., 5% CO2 humidified incubator for 24 hours. Then, the culture media were added with Compound A (final concentration at 20 nM), olaparib (APEXBIO, A4154, a PARP inhibitor, final concentration at 10 μM), Compound A + olaparib (final concentrations at20 nM and 10 μM), or PBS (vehicle), respectively, and the cells were cultured for 48 hours. Then, cell viability was determined by MTT. The test was done in triplicate.
(§6) Cell death rate was calculated by the following formula.
(§7) Cell death rate=[1−(ODtest-ODvehicle)]×100%
(§8) Cell death rates were analyzed using student's t-test, and group differences were deemed statistically significant when the p-value was lower than 0.05. Zheng-Jun Jin's Q value was calculated using the formula Q=EA+B/(EA+EB-EA×EB) to assess the combined effect of Compound A and the PARP inhibitor, wherein EA+B, EA, and EB referred to the cell death rates caused by the combined treatment, Compound A treatment and PARP inhibitor treatment, respectively. A Q value higher than 1.15 meant a synergistic […] effect.
(§9) Another PARP inhibitor, rucaparib (APEXBIO, A4156), was tested alone or with Compound A for inhibitory effect on tumor cell growth, following the protocol of Example 9.

[11] = system: H446; assay: Tumor cell death by MTT, H446; assay type: cell-based, human; settings: 20 nM
Description: as §4, §5, §6, §7, §8, §9

[12] = system: SGC-7901 human gastric cancer cells; assay: SGC-7901 gastric cancer xenograft in mice; settings: D0, 3, 6, 9, 12; for T/C: D18
Description: Mice body weights and tumor sizes were measured 2 to 3 times a week. The tumor volume (V) was calculated as (length× width^2)/2. T/C (%) was calculated as (T-T0)/(C-C0)×100, wherein T and C represented the tumor volumes in the administration group and the vehicle group respectively at the end of the experiment, while T0 and C0 represented the tumor volumes in the administration group and the vehicle group respectively at the beginning of the experiment. And RTV was calculated as (Tumor volume at Day N/Tumor volume at Day 0).
BALB/cA-nude mice, 5-6 weeks old, purchased from Shanghai SLAC Laboratory Animal Co., Ltd, were subcutaneously inoculated with SGC-7901 human gastric cancer cells (from Cell Bank, Chinese Academy of Sciences).
Mice body weights and tumor sizes were measured 2 to 3 times a week. The tumor volume, T/C and RTV were calculated as described above. Mice were sacrificed on Day 18.

Sequence of KDR (VEGFR-2) (P35968 20-1356, species assumed): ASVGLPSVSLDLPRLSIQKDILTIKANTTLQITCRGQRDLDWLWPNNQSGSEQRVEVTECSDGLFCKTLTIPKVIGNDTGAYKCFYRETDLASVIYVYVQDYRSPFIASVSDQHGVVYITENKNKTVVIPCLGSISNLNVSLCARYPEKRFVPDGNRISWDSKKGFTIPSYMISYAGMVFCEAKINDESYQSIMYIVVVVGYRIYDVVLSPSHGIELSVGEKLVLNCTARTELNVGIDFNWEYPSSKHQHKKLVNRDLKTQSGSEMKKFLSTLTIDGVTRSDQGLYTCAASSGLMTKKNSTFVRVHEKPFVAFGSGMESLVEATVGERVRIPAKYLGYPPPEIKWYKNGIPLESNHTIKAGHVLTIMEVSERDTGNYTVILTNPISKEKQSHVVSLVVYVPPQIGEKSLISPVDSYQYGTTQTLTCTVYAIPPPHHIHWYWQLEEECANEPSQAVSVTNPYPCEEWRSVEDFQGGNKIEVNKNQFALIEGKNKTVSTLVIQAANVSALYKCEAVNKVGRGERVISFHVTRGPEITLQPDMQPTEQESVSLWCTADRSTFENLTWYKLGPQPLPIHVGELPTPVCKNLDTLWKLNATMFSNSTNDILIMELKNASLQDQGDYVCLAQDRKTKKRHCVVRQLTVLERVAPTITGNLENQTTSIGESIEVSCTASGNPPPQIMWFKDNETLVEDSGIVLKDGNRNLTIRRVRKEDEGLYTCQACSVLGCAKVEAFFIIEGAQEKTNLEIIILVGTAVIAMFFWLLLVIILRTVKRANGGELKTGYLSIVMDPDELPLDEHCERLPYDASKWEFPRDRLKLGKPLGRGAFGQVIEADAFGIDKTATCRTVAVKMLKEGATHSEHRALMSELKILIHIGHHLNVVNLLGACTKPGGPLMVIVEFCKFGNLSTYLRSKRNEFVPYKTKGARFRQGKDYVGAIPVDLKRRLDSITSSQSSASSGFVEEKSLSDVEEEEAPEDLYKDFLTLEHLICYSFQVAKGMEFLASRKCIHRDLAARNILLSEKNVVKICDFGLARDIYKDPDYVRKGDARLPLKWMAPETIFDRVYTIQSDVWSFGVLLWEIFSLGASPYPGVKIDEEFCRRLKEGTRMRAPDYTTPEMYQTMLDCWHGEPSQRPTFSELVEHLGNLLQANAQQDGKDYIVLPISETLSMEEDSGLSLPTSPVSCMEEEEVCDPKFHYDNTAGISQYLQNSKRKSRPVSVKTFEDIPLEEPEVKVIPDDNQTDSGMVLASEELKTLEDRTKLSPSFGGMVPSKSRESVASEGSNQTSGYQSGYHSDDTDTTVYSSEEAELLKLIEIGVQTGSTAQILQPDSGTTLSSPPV

## c1cnc2ccc(Nc3nc(NC4CC4)c4nc[nH]c4n3)cc2c1 [Compound A]
[1]
  EC50: ~1 µM
[2]
  EC50: ~1 µM
[3]
  IC50: 15.9 ± 9.5 µM
[4]
  IC50: 3.8 ± 0.6 µM
[5]
  IC50: 16.5 ± 0.9 µM
[6]
  IC50: 4.4 ± 0.4 µM
[7]
  IC50: 3.5 ± 0.1 µM
[8]
  IC50: 26.5 ± 7.7 µM
[9]; 25 mg/kg P.O., D0, 2, 4, 8, 10
  Body weight (without tumor) D0: 23.7 g
  Body weight (without tumor) D14: 17.7 g
  RTV at D14: 13.91 ± 2.39
  Tumor volume D0: 145 ± 19 mm^3
  Tumor volume D14: 1997 ± 316 mm^3
  T/C: 66%
[9]; 50 mg/kg P.O., D0, 3, 6, 9
  Body weight (without tumor) D0: 23.4 g
  Body weight (without tumor) D14: 16.2 g
  RTV at D14: 8.21 ± 3.55
  Tumor volume D0: 147 ± 22 mm^3
  Tumor volume D14: 1176 ± 450 mm^3
  T/C: 38.9* %
[9]; 50 mg/kg P.O., D0, 4, 8
  Body weight (without tumor) D0: 23.3 g
  Body weight (without tumor) D14: 16.9 g
  RTV at D14: 10.25 ± 2.39
  Tumor volume D0: 149 ± 29 mm^3
  Tumor volume D14: 1497 ± 282 mm^3
  T/C: 48.6* %
[10]; 48 hours, Table 10
  Cell Death Rate/% 1: 10.5%
  Cell Death Rate/% 2: 9.87%
  Cell Death Rate/% 3: 10.95%
  Cell Death Rate/% mean: 10.44%
[10]; Example 10, Table 11
  Cell Death Rate/% 1: 8.29%
  Cell Death Rate/% 2: 8.39%
  Cell Death Rate/% 3: 8.64%
  Cell Death Rate/% mean: 8.44%
[11]; 48 hours, Table 10
  Cell Death Rate/% 1: 13.5%
  Cell Death Rate/% 2: 13.18%
  Cell Death Rate/% 3: 13.67%
  Cell Death Rate/% mean: 13.45%
[11]; Example 10, Table 11
  Cell Death Rate/% 1: 15%
  Cell Death Rate/% 2: 14.62%
  Cell Death Rate/% 3: 15.17%
  Cell Death Rate/% mean: 14.93%
[12]; 15 mg/kg P.O.
  RTV at D18: 5.57 ± 2.74
  Tumor volume D0: 162 ± 32 mm^3
  Tumor volume D18: 845 ± 349 mm^3
  T/C: 68.2%
[12]; 30 mg/kg P.O.
  RTV at D18: 3.73 ± 1.16
  Tumor volume D0: 197 ± 45 mm^3
  Tumor volume D18: 701 ± 142 mm^3
  T/C: 45.7* %
[12]; 60 mg/kg P.O.
  RTV at D18: 2.58 ± 1.07
  Tumor volume D0: 215 ± 49 mm^3
  Tumor volume D18: 545 ± 233 mm^3
  T/C: 31.6* %
